One test has as its system osteoblast cell cultures. The test is described as follows: Inhibition of osteoblast binding to thiolpeptide 1-coated surfaces by dissolved cyclic RGDfK in the adhesion medium. The format is cell-based, mouse, human, rat. As to conditions: dissolved peptide in the adhesion medium; coating 10 μM; FIG. 4. The method, then:
FIG. 4: Adhesion of osteoblasts to test surfaces coated with thiolpeptide 1-SMPP derivative (10 μM in the coating solution) (see FIG. 2)
x axis: Concentration of dissolved cyclo-RGDfK (without molecular anchor) in the adhesion medium (μM),
To do this, 48-well plates (Costar, "non-tissue culture treated", Art. No. 3547) were each coated with 250 μl of PBS (phosphate-buffered saline), pH=8.3, 2% BSA, per well and incubated overnight at room temperature in order to generate a BSA layer on the polystyrene. The plates were then washed with 250 μl of PBS, pH=8.3, per well and incubated at room temperature for 1 hour with 250 μl each of a solution containing 100 μg/ml of SMPB in PBS, pH 8.3. Washing of the wells was then carried out three times using 250 μl of PBS, pH 8.3, each time. For the preparation of the coating solutions, the appropriate thiol-RGD peptide was prepared in the following final concentrations in PBS, pH 8.3: 1 nM, 10 nM, 100 nM, 1 μM, 10 μM, 100 μM and 1 mM. After addition of 250 μl each of coating solution/well, the plates were incubated at room temperature overnight and then washed three times with PBS, pH 8.3. […]
(§1) The quantification of the adhered cells was carried out indirectly via the activity determination of the cellular enzyme N-acetylhexosaminidase using an appropriate standard curve according to the method of Landegren (1984, J. Immunol. Methods, 67: 379-388).

Test [1] relates to osteoblasts/platelets mixture. Kind of test: Adhesion of an osteoblast/platelet mixture to PMMA bone cement shaped articles coated with cell-selective acrylate peptides. The class given is cell-based, mouse, human. The conditions noted are these: second part experiment; 100 μM peptide in the coating solution. The method, then:
(§2) b. In the second part experiment, PMMA shaped articles were likewise coated with the acrylate peptides 3 and 5, but only in a concentration in the coating solution of 100 μM in each case. These RGD peptide-coated materials were then inoculated in parallel with osteoblasts, platelets or an osteoblast/platelet mixture and their cell adhesion was determined. MC3T3 H1 osteoblasts (350,000 cells/cm^2), human platelets (50 million cell/cm^2) and a cell mixture (350,000 osteoblasts/cm^2 […] 50 million platelets/cm^2) were in each case inoculated in parallel both onto acrylate peptide 3- and acrylate peptide 5-coated PMMA shaped articles and their cell adhesion was determined as described in Example 3.

In a further test the test system is human platelets. The test is described as follows: Adhesion of human platelets to PMMA bone cement shaped articles coated with cell-selective acrylate peptides. The class given is cell-based. The conditions noted are these: for cell adhesion, calculated Abs (405 nm), platelets: first part experiment.
Description: (§3) The model used for material coating with RGD peptides of different cell selectivity to obtain implants having locally differentiated bioactive coating patterns which should stimulate the adhesion of different cell species was polymerized PMMA bone cement shaped articles. To these were covalently coupled two RGD peptides of different cell selectivity. In this case acrylate peptide 3, type iiia, having a selectivity for alphav beta3 -/alphav beta5 -integrin-bearing osteoblasts, and acrylate peptide 5, type iiia, having a selectivity for […] -positive platelets were bonded to the PMMA shaped articles as described for Example 3.
(§4) a. In the first part experiment, PMMA shaped articles were coated with the acrylate peptides 3 and 5 in concentrations in the coating solution of 100 μM, 10 μM and 1 μM in each case. These RGD peptide-coated materials were then inoculated in parallel with osteoblasts and platelets and their cell adhesion was determined.
(§5) MC3T3 H1 osteoblasts (350,000 cells/cm^2) and human platelets (50 million cells/cm^2) were in each case inoculated in parallel both onto acrylate peptide 3- and acrylate peptide 5-coated PMMA shaped articles and their cell adhesion was determined as described in Example 3.
Human platelets were prepared following the process of Shattil and Brass (J. Biol. Chem. 262:992-1000, 1987).
as §2

For test [2], the system named is MC3T3 H1 osteoblasts. Kind of test: Adhesion of MC3T3 H1 osteoblasts to PMMA bone cement shaped articles coated with cell-selective acrylate peptides. The format is cell-based, mouse. The conditions noted are these: for cell adhesion, calculated Abs (405 nm), osteoblasts: first part experiment.
Description: as §3, §4, §5, §2

Test [3] deals with MC3T3 H1 osteoblasts. Kind of test: Adhesion of MC3T3 H1 osteoblasts to PMMA moulded articles coated with acrylate RGD peptides. The conditions noted are these: for maximal adsorption rates: 48,000 cells/cm^2, 1 hour. The format is cell-based, mouse. Here is the method:
For the covalent coupling of these peptides to polymerized PMMA (polymethyl methacrylate) surfaces, appropriate shaped articles of differing porosity (diameter: 10 mm; height: 2 mm) were prepared from three different PMMA components.
Bone cement based on PMMA (Merck KGaA, Germany, Licence No. 5181.00.00) corresponding to the product description (40 g of powder+20 ml of liquid).
10 g of PMMA/PHEMA (polyhydroxyethyl methacrylate) granules, particle size 0.5-0.6 mm (Biomet) were mixed with 1.3 ml of an HEMA solution (68.6% HEMA, 29.4% TEGMA [triethylene glycol dimethacrylate], 2% tBPB, [tert-butyl peroxybenzoate]) and adhered by means of this to a porous support material.
10 g of PMMA granules (Plex Y7H, Rohm, Germany), particle fraction 0.7-2 mm were mixed with 1.5 ml of a methyl methacrylate (MMA) solution (68.6% MMA, 29.4% TEGMA, 2% tBPB) and adhered by this means to a porous support material.
For the covalent coupling of the acrylate peptides to the prepolymerized PMMA moulded articles, stock solutions of the acrylate peptides 1, 2, 3 and 4 were prepared in a final concentration of 100 μM in each case in DMSO/0.2% camphorquinone (w/v). Then, by dilution with isopropanol/0.2% camphorquinone (w/v), concentration series having final peptide concentrations of 0.1 nM, 1 nM, 10 nM, 100 nM, 1 μM and 10 μM in each case were prepared. The moulded articles were incubated in daylight and at room temperature for 2 hours and then stored at 4° C. in the dry state. Before use, the samples were washed with PBS, pH 7.4, to remove unbound peptides and stored at 4° C. in PBS, pH 7.4, overnight.
By addition of 250 μl/moulded article each of a 5% strength BSA solution in PBS, pH 7.4, and subsequent incubation for 2 hours at room temperature and washing once with PBS, pH 7.4, non-specific cell-binding sites were blocked.
Subsequently, the adhesion of osteoblasts of the MC3T3 H1 line, obtained from the calvaria of neonatal mice (Heermeier et al., 1995, Cells and Materials 5: 309-321) to the above-described peptide-coated surfaces was investigated.
The MC3T3 H1 osteoblasts were inoculated at an inoculation density of 48,000 cells/cm^2, as described above, in Costar 48-well plates, with PMMA moulded articles coated with RGD peptide and then incubated for 1 hour at 37° C., 95% atmospheric humidity and 5% CO2. Cells non-adhered during the experiment were then washed off twice with PBS, pH 7.4.
as §1

[4] abbreviates: 1 μM peptide in the coating solution.
[5] abbreviates: 10 μM peptide in the coating solution.
[6] abbreviates: 100 μM peptide in the coating solution.
[7] abbreviates: second part experiment, 100 μM peptide in the coating solution.
Setting [8] is: bone cement shaped articles, FIG. 8.
[9] abbreviates: different PMMA moulded articles.

The values that follow come from US6280760A, “Peptide-coated implants and methods for producing same” (Merck Patent Gesellschaft mit beschraenkter Haftung, priority 1997, dated 2001).

Turning to `N=C(N)NCCC[C@@H]1NC(=O)[C@H](CCCCN)NC(=O)[C@@H](Cc2ccccc2)NC(=O)[C@H](CC(=O)O)NC(=O)CNC1=O` [cyclic RGDfK, cyclo-RGDfK (Arg-Gly-Asp-DPhe-Lysine)], the “inhibition of osteoblast binding to thiolpeptide 1-sulpho-SMPB derivative-coated surfaces” value with osteoblast cell cultures is reported as “completely inhibited”.
As for “cyclo (RGDf[acrylic-ahx-tEG-KG]) [acrylate peptide 5]”, the “cell adhesion, Abs, osteoblasts/platelets inoculated as a mixture” value in test [1] is listed as “about 6.5 Abs”. Moreover, the “cell adhesion, calculated Abs (405 nm), platelets” value with human platelets (setting [4]) was “about 0.2 Abs”; in the test on human platelets (setting [5]), “about 0.5 Abs”; in the test with human platelets (setting [6]), “about 4.0 Abs”. Besides, in the test on human platelets (setting [7]), the “cell adhesion, Abs, platelets alone” value was “about 4.0 Abs”. The “cell adhesion, calculated Abs (405 nm), osteoblasts” value in the test with MC3T3 H1 osteoblasts [2] (setting [4]) is “about 0.2 Abs”; in the test with MC3T3 H1 osteoblasts [2] (setting [5]) it was “about 1.0 Abs”; with MC3T3 H1 osteoblasts [2] (setting [6]), “about 1.5 Abs”. Further, the “cell adhesion, Abs, osteoblasts alone” value in the test on MC3T3 H1 osteoblasts [2] (setting [7]) is reported as “about 1.5 Abs”.
Consider “cyclo(RGDf[acrylic-ahx-K]) [acrylate peptide 1]”, for which the “stimulation of cell adhesion (in words)” value with MC3T3 H1 osteoblasts [3] (PMMA carriers, comparison of anchor lengths) was “almost inactive”. In addition, the “cell adsorption rates increased in comparison with uncoated surfaces” value in the test on MC3T3 H1 osteoblasts [3] (setting [8]) was “about 1.5 fold”. Besides, the maximal adsorption rates result with MC3T3 H1 osteoblasts [3] (setting [9]) is listed as “about 20%”.
For the compound “cyclo(RGDf[acrylic-ahx-ahx-K]) [acrylate peptide 2]”, the “cell adsorption rates increased in comparison with uncoated surfaces” value with MC3T3 H1 osteoblasts [3] (setting [8]) is on record as 5-15 fold; in the test with MC3T3 H1 osteoblasts [3] (porous PMMA/PHEMA granule shaped articles, FIG. 9), 2-5 fold; with MC3T3 H1 osteoblasts [3] (porous Plex Y7H granule shaped articles, FIG. 10), 2-3 fold. Besides, the maximal adsorption rates with MC3T3 H1 osteoblasts [3] (setting [9]) is reported as 80-100%. Further, the EC50 with MC3T3 H1 osteoblasts [3] (different PMMA moulded articles, read-out: half-maximal cell bindings, RGD peptide concentration in the coating solution) is 0.001 to 10 µM.
